Source: PMC9570041, “Synthesis of Novel α-Trifluoroanisole Derivatives Containing Phenylpyridine Moieties with Herbicidal Activity” (International Journal of Molecular Sciences, 2022)
Like-named read-outs stand apart in the source and are kept apart here.

Biological target: T1, Nicotiana tabacum protoporphyrinogen oxidase (NtPPO) (Nicotiana tabacum, UniProt O24164)
T1 construct: gene PPXII
T1 sequence (O24164 1-504): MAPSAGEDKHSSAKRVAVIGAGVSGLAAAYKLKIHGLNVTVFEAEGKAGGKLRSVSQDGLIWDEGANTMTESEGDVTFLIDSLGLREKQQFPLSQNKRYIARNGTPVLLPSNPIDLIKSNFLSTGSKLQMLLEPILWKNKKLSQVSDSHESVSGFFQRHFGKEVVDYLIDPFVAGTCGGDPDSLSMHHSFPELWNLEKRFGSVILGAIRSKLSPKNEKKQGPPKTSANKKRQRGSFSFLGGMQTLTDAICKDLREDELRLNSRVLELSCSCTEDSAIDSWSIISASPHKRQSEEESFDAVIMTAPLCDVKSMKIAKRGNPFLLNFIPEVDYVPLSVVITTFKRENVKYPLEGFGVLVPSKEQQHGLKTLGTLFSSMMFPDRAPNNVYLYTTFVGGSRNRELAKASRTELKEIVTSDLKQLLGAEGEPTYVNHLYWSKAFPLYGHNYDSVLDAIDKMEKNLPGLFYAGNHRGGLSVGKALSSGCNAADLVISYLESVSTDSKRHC
Assay: NtPPO inhibition in vitro, protoporphyrin IX formation by absorbance at […] nm
Format: biochemical

Row | SMILES | IC50 [nM] | IC50 (read-out: IC50) [nM]
1 | FC(F)(F)Oc1ccc(COc2ccc(-c3ncc(C(F)(F)F)cc3Cl)cc2)cc1 [7a, 3-Chloro-2-(4-((4-(trifluoromethoxy)benzyl)oxy)phenyl)-5-(trifluoromethyl)pyridine] | 9.4 ± 2.2 | 
2 | CS(=O)(=O)NC(=O)c1cc(Oc2ccc(C(F)(F)F)cc2Cl)ccc1[N+](=O)[O-] [fomesafen] |  | 110 ± 1.2
